According to paper PMC6407917, “Identification of GSK3186899/DDD853651 as a Preclinical Development Candidate for the Treatment of Visceral Leishmaniasis” (Journal of Medicinal Chemistry, 2018):

Key:
Test in all cases: biochemical
Set-up in all cases: species or system HEK293/K-562/placenta mixed human extract; Kinobeads chemoproteomic competition binding, quantified by TMT LC-MS/MS, dose response up to 20 uM
CDK2 = CDK2 (Homo sapiens, UniProt P24941)
CHEK1 = CHEK1 (Homo sapiens, UniProt O14757)
CHUK = CHUK (Homo sapiens, UniProt O15111)
Sequence of CHUK (O15111 whole entry): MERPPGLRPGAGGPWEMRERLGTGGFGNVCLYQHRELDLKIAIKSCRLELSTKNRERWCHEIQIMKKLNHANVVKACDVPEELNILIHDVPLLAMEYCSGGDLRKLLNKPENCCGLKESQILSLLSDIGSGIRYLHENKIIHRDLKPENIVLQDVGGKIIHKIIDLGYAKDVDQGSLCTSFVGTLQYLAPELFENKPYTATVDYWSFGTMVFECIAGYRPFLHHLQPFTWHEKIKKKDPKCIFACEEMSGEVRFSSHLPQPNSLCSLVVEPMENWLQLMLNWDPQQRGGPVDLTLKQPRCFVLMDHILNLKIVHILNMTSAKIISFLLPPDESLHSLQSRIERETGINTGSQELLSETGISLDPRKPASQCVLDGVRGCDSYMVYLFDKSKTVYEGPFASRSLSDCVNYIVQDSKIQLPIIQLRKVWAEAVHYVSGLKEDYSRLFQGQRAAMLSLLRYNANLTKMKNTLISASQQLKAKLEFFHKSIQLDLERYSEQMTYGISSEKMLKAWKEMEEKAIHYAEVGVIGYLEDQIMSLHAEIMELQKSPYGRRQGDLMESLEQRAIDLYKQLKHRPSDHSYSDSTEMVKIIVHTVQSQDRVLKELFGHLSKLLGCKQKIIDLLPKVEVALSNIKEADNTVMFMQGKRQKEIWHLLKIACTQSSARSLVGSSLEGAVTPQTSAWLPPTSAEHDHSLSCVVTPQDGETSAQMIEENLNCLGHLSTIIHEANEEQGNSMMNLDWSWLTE

EIF2AK1 = EIF2AK1 (Homo sapiens, UniProt Q9BQI3)
Sequence of EIF2AK1 (Q9BQI3 whole entry): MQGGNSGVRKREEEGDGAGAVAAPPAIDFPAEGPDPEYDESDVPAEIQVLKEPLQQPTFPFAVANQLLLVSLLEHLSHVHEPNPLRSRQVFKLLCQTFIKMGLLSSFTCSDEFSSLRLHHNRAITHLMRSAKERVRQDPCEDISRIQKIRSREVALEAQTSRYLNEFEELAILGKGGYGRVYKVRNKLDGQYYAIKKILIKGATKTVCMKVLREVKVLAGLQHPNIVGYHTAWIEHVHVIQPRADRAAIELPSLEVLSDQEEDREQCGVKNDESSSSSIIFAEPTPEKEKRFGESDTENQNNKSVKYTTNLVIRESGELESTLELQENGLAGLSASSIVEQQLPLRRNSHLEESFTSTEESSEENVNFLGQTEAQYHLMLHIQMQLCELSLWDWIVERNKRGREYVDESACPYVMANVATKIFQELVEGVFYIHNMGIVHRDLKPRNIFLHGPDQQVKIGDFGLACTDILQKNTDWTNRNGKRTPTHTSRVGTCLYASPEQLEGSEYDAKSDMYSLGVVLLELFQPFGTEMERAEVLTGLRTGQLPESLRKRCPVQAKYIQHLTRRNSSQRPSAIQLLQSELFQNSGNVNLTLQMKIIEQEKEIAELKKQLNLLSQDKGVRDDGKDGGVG

EPHB4 = EPHB4 (Homo sapiens, UniProt P54760)
LATS1 = LATS1 (Homo sapiens, UniProt O95835)
MAPK14 = MAPK14 (Homo sapiens, UniProt Q16539)
MAPK7 = MAPK7 (Homo sapiens, UniProt Q13164)
Sequence of MAPK7 (Q13164 whole entry): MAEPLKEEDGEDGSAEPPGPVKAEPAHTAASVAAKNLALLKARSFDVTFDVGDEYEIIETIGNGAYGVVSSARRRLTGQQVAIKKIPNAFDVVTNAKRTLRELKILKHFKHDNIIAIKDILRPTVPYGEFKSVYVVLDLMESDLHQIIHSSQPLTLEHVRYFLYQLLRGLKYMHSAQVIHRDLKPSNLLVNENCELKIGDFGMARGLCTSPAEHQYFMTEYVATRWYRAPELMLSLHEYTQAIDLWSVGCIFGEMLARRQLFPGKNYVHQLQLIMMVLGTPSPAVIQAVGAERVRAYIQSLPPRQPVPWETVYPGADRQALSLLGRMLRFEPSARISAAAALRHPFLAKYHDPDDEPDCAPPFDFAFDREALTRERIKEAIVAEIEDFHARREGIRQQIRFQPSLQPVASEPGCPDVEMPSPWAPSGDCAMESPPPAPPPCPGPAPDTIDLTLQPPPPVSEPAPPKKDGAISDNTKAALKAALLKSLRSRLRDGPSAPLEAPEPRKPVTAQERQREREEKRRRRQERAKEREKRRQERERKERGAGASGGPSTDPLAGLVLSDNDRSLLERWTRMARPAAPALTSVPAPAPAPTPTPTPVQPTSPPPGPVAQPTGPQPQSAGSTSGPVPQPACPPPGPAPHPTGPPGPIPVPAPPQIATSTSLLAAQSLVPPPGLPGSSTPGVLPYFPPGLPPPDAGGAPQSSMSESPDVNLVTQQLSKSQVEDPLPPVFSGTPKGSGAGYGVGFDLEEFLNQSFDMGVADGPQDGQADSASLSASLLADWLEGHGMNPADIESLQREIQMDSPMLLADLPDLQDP

MAPKAPK5 = MAPKAPK5 (Homo sapiens, UniProt Q8IW41)
Sequence of MAPKAPK5 (Q8IW41 whole entry): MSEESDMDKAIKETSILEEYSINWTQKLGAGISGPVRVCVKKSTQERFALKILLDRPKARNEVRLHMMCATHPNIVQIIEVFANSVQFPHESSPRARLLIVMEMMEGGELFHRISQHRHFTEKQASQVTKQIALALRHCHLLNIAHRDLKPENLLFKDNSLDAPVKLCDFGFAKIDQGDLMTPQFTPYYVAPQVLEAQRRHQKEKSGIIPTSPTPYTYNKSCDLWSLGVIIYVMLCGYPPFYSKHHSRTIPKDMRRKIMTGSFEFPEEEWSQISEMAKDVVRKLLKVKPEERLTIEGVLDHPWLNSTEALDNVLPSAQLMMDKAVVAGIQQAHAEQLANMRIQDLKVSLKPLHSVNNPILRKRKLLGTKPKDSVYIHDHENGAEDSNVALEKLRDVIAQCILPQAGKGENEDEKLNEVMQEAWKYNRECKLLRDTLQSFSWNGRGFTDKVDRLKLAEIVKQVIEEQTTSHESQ

MYLK = MYLK (Homo sapiens, UniProt Q15746)
PLK1 = PLK1 (Homo sapiens, UniProt P53350)
Sequence of PLK1 (P53350 whole entry): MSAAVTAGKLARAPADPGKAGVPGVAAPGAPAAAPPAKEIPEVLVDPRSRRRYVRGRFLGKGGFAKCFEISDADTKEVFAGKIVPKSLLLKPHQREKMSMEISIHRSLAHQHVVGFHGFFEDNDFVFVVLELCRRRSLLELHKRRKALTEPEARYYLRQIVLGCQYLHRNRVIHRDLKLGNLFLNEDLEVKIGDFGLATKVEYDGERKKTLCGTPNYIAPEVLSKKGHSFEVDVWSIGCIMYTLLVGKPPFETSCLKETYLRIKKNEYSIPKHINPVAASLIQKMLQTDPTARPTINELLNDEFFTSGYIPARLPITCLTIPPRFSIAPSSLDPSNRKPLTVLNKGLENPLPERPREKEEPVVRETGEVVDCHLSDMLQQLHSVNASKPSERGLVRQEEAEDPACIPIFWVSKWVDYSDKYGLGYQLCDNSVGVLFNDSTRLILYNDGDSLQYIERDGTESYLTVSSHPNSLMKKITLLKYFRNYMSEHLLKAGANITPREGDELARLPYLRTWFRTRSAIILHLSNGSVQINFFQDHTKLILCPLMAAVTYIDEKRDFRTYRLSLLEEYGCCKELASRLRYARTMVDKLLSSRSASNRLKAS

PRKAR2B = PRKAR2B (Homo sapiens, UniProt P31323)
Sequence of PRKAR2B (P31323 whole entry): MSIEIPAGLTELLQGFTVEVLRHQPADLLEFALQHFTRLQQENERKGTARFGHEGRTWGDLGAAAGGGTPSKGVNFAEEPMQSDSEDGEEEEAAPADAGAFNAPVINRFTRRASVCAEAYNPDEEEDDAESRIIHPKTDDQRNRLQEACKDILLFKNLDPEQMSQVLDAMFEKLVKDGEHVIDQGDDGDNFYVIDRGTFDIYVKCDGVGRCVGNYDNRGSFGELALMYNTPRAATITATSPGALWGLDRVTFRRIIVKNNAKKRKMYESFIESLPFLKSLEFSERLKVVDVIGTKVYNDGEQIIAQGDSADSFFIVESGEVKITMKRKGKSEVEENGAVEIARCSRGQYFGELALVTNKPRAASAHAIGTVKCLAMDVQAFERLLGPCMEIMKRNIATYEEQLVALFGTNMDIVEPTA

PTK2 = PTK2 (Homo sapiens, UniProt Q05397)
RIOK2 = RIOK2 (Homo sapiens, UniProt Q9BVS4)
RPS6KA4 = RPS6KA4 (Homo sapiens, UniProt O75676)
RPS6KA5 = RPS6KA5 (Homo sapiens, UniProt O75582)
RPS6KB1 = RPS6KB1 (Homo sapiens, UniProt P23443)
TNK1 = TNK1 (Homo sapiens, UniProt Q13470)
TNK2 = TNK2 (Homo sapiens, UniProt Q07912)
Sequence of TNK2 (Q07912 whole entry): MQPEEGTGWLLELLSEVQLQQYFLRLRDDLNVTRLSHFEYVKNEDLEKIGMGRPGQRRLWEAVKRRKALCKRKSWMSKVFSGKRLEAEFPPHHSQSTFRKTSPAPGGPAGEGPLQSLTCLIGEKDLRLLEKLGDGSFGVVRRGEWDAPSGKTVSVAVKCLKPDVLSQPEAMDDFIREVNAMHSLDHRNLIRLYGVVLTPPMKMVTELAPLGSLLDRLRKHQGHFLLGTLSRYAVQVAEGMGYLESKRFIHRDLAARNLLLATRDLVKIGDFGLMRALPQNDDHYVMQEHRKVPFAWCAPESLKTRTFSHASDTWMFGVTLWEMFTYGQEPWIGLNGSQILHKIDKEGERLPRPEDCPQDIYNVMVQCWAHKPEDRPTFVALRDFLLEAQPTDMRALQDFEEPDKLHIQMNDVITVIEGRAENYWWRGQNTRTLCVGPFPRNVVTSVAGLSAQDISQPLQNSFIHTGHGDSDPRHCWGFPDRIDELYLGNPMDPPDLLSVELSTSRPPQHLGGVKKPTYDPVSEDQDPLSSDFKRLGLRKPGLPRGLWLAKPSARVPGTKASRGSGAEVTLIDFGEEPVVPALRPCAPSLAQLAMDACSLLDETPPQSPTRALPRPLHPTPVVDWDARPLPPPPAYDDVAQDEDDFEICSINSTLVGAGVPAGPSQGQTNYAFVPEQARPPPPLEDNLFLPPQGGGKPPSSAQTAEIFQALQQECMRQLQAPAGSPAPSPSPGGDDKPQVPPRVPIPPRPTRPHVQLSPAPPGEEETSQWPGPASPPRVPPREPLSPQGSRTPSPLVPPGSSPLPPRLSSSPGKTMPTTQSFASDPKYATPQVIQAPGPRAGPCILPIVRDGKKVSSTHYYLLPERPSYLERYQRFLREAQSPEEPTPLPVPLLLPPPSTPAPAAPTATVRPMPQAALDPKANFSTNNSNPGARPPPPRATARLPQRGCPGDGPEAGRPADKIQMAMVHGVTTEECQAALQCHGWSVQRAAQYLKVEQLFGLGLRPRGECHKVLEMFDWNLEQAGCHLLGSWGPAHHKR

ULK1 = ULK1 (Homo sapiens, UniProt O75385)
YWHAG = YWHAG (Homo sapiens, UniProt P61981)
Sequence of YWHAG (P61981 whole entry): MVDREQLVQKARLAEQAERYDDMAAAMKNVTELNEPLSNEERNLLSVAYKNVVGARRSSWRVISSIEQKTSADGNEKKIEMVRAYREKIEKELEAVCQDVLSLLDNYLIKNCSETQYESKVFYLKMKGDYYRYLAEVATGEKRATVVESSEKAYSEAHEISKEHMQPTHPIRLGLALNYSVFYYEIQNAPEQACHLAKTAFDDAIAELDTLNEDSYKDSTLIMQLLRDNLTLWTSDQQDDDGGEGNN

IC50 (CDK2): 1.2 µM
IC50 (CHEK1): ≥ 20 µM
IC50 (CHUK): ≥ 20 µM
IC50 (EIF2AK1): ≥ 20 µM
IC50 (EPHB4): ≥ 20 µM
IC50 (LATS1): ≥ 20 µM
IC50 (MAPK14): ≥ 20 µM
IC50 (MAPK7): ≥ 20 µM
IC50 (MAPKAPK5): 3 µM
IC50 (MYLK): ≥ 20 µM
IC50 (PLK1): ≥ 20 µM
IC50 (PRKAR2B): ≥ 20 µM
IC50 (PTK2): ≥ 20 µM
IC50 (RIOK2): ≥ 20 µM
IC50 (RPS6KA4): ≥ 20 µM
IC50 (RPS6KA5): ≥ 20 µM
IC50 (RPS6KB1): ≥ 20 µM
IC50 (TNK1): ≥ 20 µM
IC50 (TNK2): ≥ 20 µM
IC50 (ULK1): ≥ 20 µM
IC50 (YWHAG): ≥ 20 µM
Structure (SMILES): COc1ccccc1-c1n[nH]c2nc(N[C@H]3CC[C@H](NS(=O)(=O)CCC(F)(F)F)CC3)nc(OC)c12 [compound 31, 3,3,3-Trifluoro-N-(trans-4-((4-methoxy-3-(2-methoxyphenyl)-1H-pyrazolo[3,4-d]pyrimidin-6-yl)amino)cyclohexyl)propane-1-sulfonamide]
